Assay results taken from patent US8710065B2, “Tricyclic inhibitors of kinases” (AbbVie Inc., priority 2011, dated 2014).

Biological target: T1, GST-tagged-Wee1 kinase (Homo sapiens, UniProt P30291)
T1 construct: purchased Carnabio (Carna Biosciences) 05-177
Experiment: Wee1 time-resolved fluorescence equilibrium binding assay (displacement of Oregon Green-labeled ATP-competitive kinase probe)
Settings: read-out: Wee-1 inhibition (Ki)
Method in brief: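 Time-resolved fluorescence equilibrium binding with GST-Wee1, measuring displacement of a rapidly reversible Oregon Green-labelled ATP-competitive probe by competitive inhibitors; values reported as Ki.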

T1 sequence (P30291 whole entry): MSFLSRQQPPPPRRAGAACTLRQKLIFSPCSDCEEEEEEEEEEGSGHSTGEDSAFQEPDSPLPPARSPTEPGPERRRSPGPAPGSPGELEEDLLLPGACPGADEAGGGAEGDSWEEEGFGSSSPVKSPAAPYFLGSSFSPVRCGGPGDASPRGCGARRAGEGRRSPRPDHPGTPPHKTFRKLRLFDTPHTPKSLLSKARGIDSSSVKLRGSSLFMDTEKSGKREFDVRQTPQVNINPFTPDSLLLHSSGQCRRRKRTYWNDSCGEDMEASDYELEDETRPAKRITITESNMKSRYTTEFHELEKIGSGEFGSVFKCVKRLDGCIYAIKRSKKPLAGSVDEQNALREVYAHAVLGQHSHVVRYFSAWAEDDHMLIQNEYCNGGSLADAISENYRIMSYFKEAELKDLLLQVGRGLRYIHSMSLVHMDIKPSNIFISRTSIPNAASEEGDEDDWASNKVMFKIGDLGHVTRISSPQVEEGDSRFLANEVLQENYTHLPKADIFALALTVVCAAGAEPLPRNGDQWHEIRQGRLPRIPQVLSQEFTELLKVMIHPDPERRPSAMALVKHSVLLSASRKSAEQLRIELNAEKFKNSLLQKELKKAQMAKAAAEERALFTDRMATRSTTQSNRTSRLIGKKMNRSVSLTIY

For `CC(=O)N1Cc2cc(Nc3ncc4c(=O)n(-c5c(Cl)cccc5Cl)c5nccn5c4n3)ccc2C2(CC2)C1` [Example 207, 2-[(2′-acetyl-2′,3′-dihydro-1′H-spiro[cyclopropane-1,4′-isoquinolin]-7′-yl)amino]-6-(2,6-dichlorophenyl)imidazo[1,2-a]pyrimido[5,4-e]pyrimidin-5(6H)-one], the Ki was less than 10 nM.
`O=c1c2cnc(Nc3ccc4c(c3)CC(NCCF)C4)nc2n2ccnc2n1-c1c(F)cccc1Cl` (centres unmarked) [Example 257, 6-(2-chloro-6-fluorophenyl)-2-({2-[(2-fluoroethyl)amino]-2,3-dihydro-1H-inden-5-yl}amino)imidazo[1,2-a]pyrimido[5,4-e]pyrimidin-5(6H)-one] gave a Ki of less than 10 nM.
In the case of `O=c1c2cnc(Nc3ccc(N4CCC(F)(F)CC4)cc3)nc2n2ccnc2n1-c1c(Cl)cccc1Cl` [Example 153, 6-(2,6-dichlorophenyl)-2-{[4-(4,4-difluoropiperidin-1-yl)phenyl]amino}imidazo[1,2-a]pyrimido[5,4-e]pyrimidin-5(6H)-one], the Ki is reported as less than 10 nM.
Compound `CNS(=O)(=O)Cc1ccc(Nc2ncc3c(=O)n(-c4ccccc4Cl)c4nccn4c3n2)cc1` [Example 293, 1-(4-{[6-(2-chlorophenyl)-5-oxo-5,6-dihydroimidazo[1,2-a]pyrimido[5,4-e]pyrimidin-2-yl]amino}phenyl)-N-methylmethanesulfonamide] has a Ki of 10 to 100 nM.
For `O=c1c2cnc(Nc3ccc(NCCCN4CCOCC4)cc3)nc2n2ccnc2n1-c1ccccc1Cl` [Example 189, 6-(2-chlorophenyl)-2-[(4-{[3-(morpholin-4-yl)propyl]amino}phenyl)amino]imidazo[1,2-a]pyrimido[5,4-e]pyrimidin-5(6H)-one], the Ki was 10 to 100 nM.
Work on `O=C(C1CC1)N1Cc2cc(Nc3ncc4c(=O)n(-c5c(F)cccc5Cl)c5nccn5c4n3)ccc2C2(CC2)C1` [Example 242, 6-(2-chloro-6-fluorophenyl)-2-{[2′-(cyclopropylcarbonyl)-2′,3′-dihydro-1′H-spiro[cyclopropane-1,4′-isoquinolin]-7′-yl]amino}imidazo[1,2-a]pyrimido[5,4-e]pyrimidin-5(6H)-one] yielded a Ki of less than 10 nM.
For `CC1(C)CNCc2cc(Nc3ncc4c(=O)n(-c5c(Cl)cccc5Cl)c5nccn5c4n3)ccc21` [Example 307, 6-(2,6-dichlorophenyl)-2-[(4,4-dimethyl-1,2,3,4-tetrahydroisoquinolin-7-yl)amino]imidazo[1,2-a]pyrimido[5,4-e]pyrimidin-5(6H)-one], the Ki was less than 10 nM.
Work on `O=c1c2cnc(Nc3ccc(NC4CCNCC4)cc3)nc2n2ccnc2n1-c1c(Cl)cccc1Cl` [Example 308, 6-(2,6-dichlorophenyl)-2-{[4-(piperidin-4-ylamino)phenyl]amino}imidazo[1,2-a]pyrimido[5,4-e]pyrimidin-5(6H)-one] yielded a Ki of less than 10 nM.
`CC(C)(C)C(=O)N1Cc2cc(Nc3ncc4c(=O)n(-c5c(Cl)cccc5Cl)c5nccn5c4n3)ccc2C2(CC2)C1` [Example 276, 6-(2,6-dichlorophenyl)-2-{[2′-(2,2-dimethylpropanoyl)-2′,3′-dihydro-1′H-spiro[cyclopropane-1,4′-isoquinolin]-7′-yl]amino}imidazo[1,2-a]pyrimido[5,4-e]pyrimidin-5(6H)-one] was tested, and the Ki was less than 10 nM.
`CCN(CCN(C)C)c1ccc(Nc2ncc3c(=O)n(-c4ccccc4Cl)c4nccn4c3n2)cc1` [Example 262, 6-(2-chlorophenyl)-2-[(4-{[2-(dimethylamino)ethyl](ethyl)amino}phenyl)amino]imidazo[1,2-a]pyrimido[5,4-e]pyrimidin-5(6H)-one] was tested, and the Ki was less than 10 nM.
For `O=c1c2cnc(Nc3cc(Cl)c(N4CCNCC4)c(Cl)c3)nc2n2ccnc2n1-c1ccccc1Cl` [Example 217, 6-(2-chlorophenyl)-2-{[3,5-dichloro-4-(piperazin-1-yl)phenyl]amino}imidazo[1,2-a]pyrimido[5,4-e]pyrimidin-5(6H)-one], the Ki was 10 to 100 nM.
Compound `CC1(C)CN(CCF)Cc2cc(Nc3ncc4c(=O)n(-c5c(Cl)cccc5Cl)c5nccn5c4n3)ccc21` [Example 302, 6-(2,6-dichlorophenyl)-2-{[2-(2-fluoroethyl)-4,4-dimethyl-1,2,3,4-tetrahydroisoquinolin-7-yl]amino}imidazo[1,2-a]pyrimido[5,4-e]pyrimidin-5(6H)-one] has a Ki of less than 10 nM.
`CC(C)S(=O)(=O)N1Cc2cc(Nc3ncc4c(=O)n(-c5c(Cl)cccc5Cl)c5nccn5c4n3)ccc2C2(CC2)C1` [Example 286, 6-(2,6-dichlorophenyl)-2-{[2′-(propan-2-ylsulfonyl)-2′,3′-dihydro-1′H-spiro[cyclopropane-1,4′-isoquinolin]-7′-yl]amino}imidazo[1,2-a]pyrimido[5,4-e]pyrimidin-5(6H)-one] gave a Ki of less than 10 nM.
`O=C(Nc1ccc(Nc2ncc3c(=O)n(-c4ccccc4Cl)c4nccn4c3n2)cc1)c1ccncc1` [Example 61, N-(4-{[6-(2-chlorophenyl)-5-oxo-5,6-dihydroimidazo[1,2-a]pyrimido[5,4-e]pyrimidin-2-yl]amino}phenyl)pyridine-4-carboxamide] gave a Ki of less than 10 nM.
`CC(C)N1CCN(c2ccc(Nc3ncc4c(=O)n(-c5ccccc5Cl)c5nccn5c4n3)cc2F)CC1` [Example 33, 6-(2-chlorophenyl)-2-({3-fluoro-4-[4-(propan-2-yl)piperazin-1-yl]phenyl}amino)imidazo[1,2-a]pyrimido[5,4-e]pyrimidin-5(6H)-one] was tested, and the Ki was less than 10 nM.
Compound `O=c1c2cnc(Nc3ccc(N4C[C@@H]5C[C@H]4CN5)cc3)nc2n2ccnc2n1-c1c(Cl)cccc1Cl` [Example 151, 2-({4-[(1S,45)-2,5-diazabicyclo[2.2.1]hept-2-yl]phenyl}amino)-6-(2,6-dichlorophenyl)imidazo[1,2-a]pyrimido[5,4-e]pyrimidin-5(6H)-one] has a Ki of less than 10 nM.
For `CN1CCCC1CCNc1ccc(Nc2ncc3c(=O)n(-c4c(Cl)cccc4Cl)c4nccn4c3n2)cc1` (centres unmarked) [Example 273, 6-(2,6-dichlorophenyl)-2-[(4-{[2-(1-methylpyrrolidin-2-yl)ethyl]amino}phenyl)amino]imidazo[1,2-a]pyrimido[5,4-e]pyrimidin-5(6H)-one], the Ki was less than 10 nM.
`CN1Cc2cc(Nc3ncc4c(=O)n(-c5c(F)cccc5Cl)c5nccn5c4n3)ccc2C2(CC2)C1` [Example 140, 6-(2-chloro-6-fluorophenyl)-2-[(2′-methyl-2′,3′-dihydro-1′H-spiro[cyclopropane-1,4′-isoquinolin]-7′-yl)amino]imidazo[1,2-a]pyrimido[5,4-e]pyrimidin-5(6H)-one] was tested, and the Ki was less than 10 nM.
With `CN1CCC(NC(=O)c2ccc(Nc3ncc4c(=O)n(-c5c(Cl)cccc5Cl)c5nccn5c4n3)cc2)CC1` [Example 239, 4-{[6-(2,6-dichlorophenyl)-5-oxo-5,6-dihydroimidazo[1,2-a]pyrimido[5,4-e]pyrimidin-2-yl]amino}-N-(1-methylpiperidin-4-yl)benzamide] the Ki was less than 10 nM.
Work on `CN1CCc2ccc(Nc3ncc4c(=O)n(-c5ccccc5Cl)c5nccn5c4n3)cc2CC1` [Example 107, 6-(2-chlorophenyl)-2-[(3-methyl-2,3,4,5-tetrahydro-1H-3-benzazepin-7-yl)amino]imidazo[1,2-a]pyrimido[5,4-e]pyrimidin-5(6H)-one] yielded a Ki of less than 10 nM.
For `CN1CCN(c2ccc(Nc3ncc4c(=O)n(-c5c(F)cc(F)cc5Cl)c5nccn5c4n3)cc2)CC1` [Example 186, 6-(2-chloro-4,6-difluorophenyl)-2-{[4-(4-methylpiperazin-1-yl)phenyl]amino}imidazo[1,2-a]pyrimido[5,4-e]pyrimidin-5(6H)-one], the Ki was less than 10 nM.
In the case of `CN(C)CCN1CCN(c2ccc(Nc3ncc4c(=O)n(-c5ccccc5Cl)c5nccn5c4n3)cc2)CC1` [Example 260, 6-(2-chlorophenyl)-2-[(4-{4-[2-(dimethylamino)ethyl]piperazin-1-yl}phenyl)amino]imidazo[1,2-a]pyrimido[5,4-e]pyrimidin-5(6H)-one], the Ki is reported as less than 10 nM.
`O=c1c2cnc(Nc3ccc(N4CCN5CCC[C@@H]5C4)cc3)nc2n2ccnc2n1-c1ccccc1Cl` [Example 204, 6-(2-chlorophenyl)-2-({4-[(8aR)-hexahydropyrrolo[1,2-a]pyrazin-2(1H)-yl]phenyl}amino)imidazo[1,2-a]pyrimido[5,4-e]pyrimidin-5(6H)-one] showed a Ki of less than 10 nM.
Work on `CN1CCc2cc(Nc3ncc4c(=O)n(-c5c(Cl)cccc5Cl)c5nccn5c4n3)ccc2C1(C)C` [Example 150, 6-(2,6-dichlorophenyl)-2-[(1,1,2-trimethyl-1,2,3,4-tetrahydroisoquinolin-6-yl)amino]imidazo[1,2-a]pyrimido[5,4-e]pyrimidin-5(6H)-one] yielded a Ki of less than 10 nM.
`O=C(C1CCCC1)N1Cc2cc(Nc3ncc4c(=O)n(-c5c(F)cccc5Cl)c5nccn5c4n3)ccc2C2(CC2)C1` [Example 267, 6-(2-chloro-6-fluorophenyl)-2-{[2′-(cyclopentylcarbonyl)-2′,3′-dihydro-1′H-spiro[cyclopropane-1,4′-isoquinolin]-7′-yl]amino}imidazo[1,2-a]pyrimido[5,4-e]pyrimidin-5(6H)-one] showed a Ki of less than 10 nM.
`Cc1cc(Nc2ncc3c(=O)n(-c4ccccc4Cl)c4nccn4c3n2)ccc1O` [Example 102, 6-(2-chlorophenyl)-2-[(4-hydroxy-3-methylphenyl)amino]imidazo[1,2-a]pyrimido[5,4-e]pyrimidin-5(6H)-one] showed a Ki of less than 10 nM.
`CC(C)c1cc(Nc2ncc3c(=O)n(-c4ccccc4Cl)c4nccn4c3n2)ccc1N1CCN(C)CC1` [Example 157, 6-(2-chlorophenyl)-2-{[4-(4-methylpiperazin-1-yl)-3-(propan-2-yl)phenyl]amino}imidazo[1,2-a]pyrimido[5,4-e]pyrimidin-5(6H)-one] was tested, and the Ki was less than 10 nM.
`CN1Cc2cc(Nc3ncc4c(=O)n(-c5ccccc5Cl)c5nccn5c4n3)ccc2C(C)(C)C1` [Example 53, 6-(2-chlorophenyl)-2-[(2,4,4-trimethyl-1,2,3,4-tetrahydroisoquinolin-7-yl)amino]imidazo[1,2-a]pyrimido[5,4-e]pyrimidin-5(6H)-one] was tested, and the Ki was less than 10 nM.
`COC[C@@H]1CCCN1c1ccc(Nc2ncc3c(=O)n(-c4ccccc4Cl)c4nccn4c3n2)cc1` [Example 264, 6-(2-chlorophenyl)-2-({4-[(2S)-2-(methoxymethyl)pyrrolidin-1-yl]phenyl}amino)imidazo[1,2-a]pyrimido[5,4-e]pyrimidin-5(6H)-one] showed a Ki of 10 to 100 nM.
